Literature values, collected in US10736931B2, “Pharmaceutical compositions comprising plant extracts and methods for reducing duration of a common cold using same” (Matrixx Initiatives, Inc., priority 2014, dated 2020).

Target: acetylcholine esterase (Homo sapiens, UniProt P22303)
Settings: ceramides from L. operculata; Feitosa et al. 2011

Chain of acetylcholine esterase (P22303 32-614): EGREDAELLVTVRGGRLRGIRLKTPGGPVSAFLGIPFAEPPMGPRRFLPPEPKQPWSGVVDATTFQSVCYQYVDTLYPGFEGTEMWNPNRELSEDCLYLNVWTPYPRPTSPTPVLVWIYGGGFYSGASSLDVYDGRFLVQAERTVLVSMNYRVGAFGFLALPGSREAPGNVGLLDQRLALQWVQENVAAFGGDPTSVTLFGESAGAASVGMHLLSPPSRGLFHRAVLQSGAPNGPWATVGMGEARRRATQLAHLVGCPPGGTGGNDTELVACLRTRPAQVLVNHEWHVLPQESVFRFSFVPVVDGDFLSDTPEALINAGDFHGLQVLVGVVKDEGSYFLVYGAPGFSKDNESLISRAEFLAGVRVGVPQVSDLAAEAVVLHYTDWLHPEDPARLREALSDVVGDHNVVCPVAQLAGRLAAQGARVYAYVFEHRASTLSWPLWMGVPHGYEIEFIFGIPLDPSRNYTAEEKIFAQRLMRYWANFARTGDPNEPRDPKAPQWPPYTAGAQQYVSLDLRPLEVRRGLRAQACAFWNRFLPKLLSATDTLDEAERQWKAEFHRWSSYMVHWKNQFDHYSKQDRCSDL

## ceramides
  acetylcholine esterase inhibitory effects: high
